Patent US20250163022A1, “PARP1 INHIBITORS” (Synnovation Therapeutics, Inc., priority 2021, published 2025)

target: T1, PARP1 (Homo sapiens, UniProt P09874); assay: In-Cell Western measurement of PARylation in PARP1 WT and knockout cells; type: cell-based; conditions: HeLa cells (wide-type with PARP1 gene); hydrogen peroxide-induced PARylation; compounds 30 min, then 10 mM hydrogen peroxide 15 min; read-out: HeLa_WT_IC50
T1 construct: HeLa cells (wide-type with PARP1 gene) were purchased from ATCC; host or cells: HeLa (wild type)
Text: The purpose of this cell-based assay is to measure the potency and selectivity of synthesized PARP inhibitors in suppressing hydrogen peroxide-induced PARylation in cells with and without PARP1 expression. Several cell lines were used in this assay. The human PARP1 knockout HEK-293T cell line (#ab266598) was purchased from Abcam, and its corresponding wide-type control is the human wild-type HEK-293T cell line (#ab255449). The HAP1 isogenic cell lines with and without the PARP1 gene (#HZGHC003943c006) were purchased from Horizon Discovery. HeLa cells (wide-type with PARP1 gene) were purchased from ATCC. Cells were cultured using complete medium containing 10% fetal bovine serum. One day before the assay, cells were seeded in 96-well plates at the density of 20,000 cells per well in 100 uL complete medium. Compounds were dissolved using DMSO and diluted to the working concentrations using complete medium. Cells were pre-treated with compounds for 30 min and then stimulated with 10 mM hydrogen peroxide for 15 min. After stimulation, cells were immediately fixed using ice-cold methanol for 20 min. After fixation, cells were washed using 1×PBST buffer for 3 times, 5 min each time, to eliminate residual methanol. Cells were blocked for 2 h at room temperature in blocking buffer (LI-COR Biosciences, #927-70001). Primary antibody was diluted in diluent buffer (LI-COR Biosciences, #927-75001, 1:200) at 50 uL per well. Cells were incubated with the primary antibody at 4° C. for 18 h. The wells were then washed using 1×PBST for 3 times, 5 min each time. IRDye® 680RD Goat anti-Mouse IgG (H+L) secondary antibody was diluted at 1/2000 using the diluent buffer and added at 100 μL per well. Secondary antibody incubation was for 1 h at room temperature. Cells were then washed using 1×PBST for 3 times, 5 min each time. The signal was detected and analyzed using LI-COR Odyssey DLx Imaging system. Data were collected and further processed using GraphPad Prism for IC50 estimation.

T1 sequence (P09874 whole entry): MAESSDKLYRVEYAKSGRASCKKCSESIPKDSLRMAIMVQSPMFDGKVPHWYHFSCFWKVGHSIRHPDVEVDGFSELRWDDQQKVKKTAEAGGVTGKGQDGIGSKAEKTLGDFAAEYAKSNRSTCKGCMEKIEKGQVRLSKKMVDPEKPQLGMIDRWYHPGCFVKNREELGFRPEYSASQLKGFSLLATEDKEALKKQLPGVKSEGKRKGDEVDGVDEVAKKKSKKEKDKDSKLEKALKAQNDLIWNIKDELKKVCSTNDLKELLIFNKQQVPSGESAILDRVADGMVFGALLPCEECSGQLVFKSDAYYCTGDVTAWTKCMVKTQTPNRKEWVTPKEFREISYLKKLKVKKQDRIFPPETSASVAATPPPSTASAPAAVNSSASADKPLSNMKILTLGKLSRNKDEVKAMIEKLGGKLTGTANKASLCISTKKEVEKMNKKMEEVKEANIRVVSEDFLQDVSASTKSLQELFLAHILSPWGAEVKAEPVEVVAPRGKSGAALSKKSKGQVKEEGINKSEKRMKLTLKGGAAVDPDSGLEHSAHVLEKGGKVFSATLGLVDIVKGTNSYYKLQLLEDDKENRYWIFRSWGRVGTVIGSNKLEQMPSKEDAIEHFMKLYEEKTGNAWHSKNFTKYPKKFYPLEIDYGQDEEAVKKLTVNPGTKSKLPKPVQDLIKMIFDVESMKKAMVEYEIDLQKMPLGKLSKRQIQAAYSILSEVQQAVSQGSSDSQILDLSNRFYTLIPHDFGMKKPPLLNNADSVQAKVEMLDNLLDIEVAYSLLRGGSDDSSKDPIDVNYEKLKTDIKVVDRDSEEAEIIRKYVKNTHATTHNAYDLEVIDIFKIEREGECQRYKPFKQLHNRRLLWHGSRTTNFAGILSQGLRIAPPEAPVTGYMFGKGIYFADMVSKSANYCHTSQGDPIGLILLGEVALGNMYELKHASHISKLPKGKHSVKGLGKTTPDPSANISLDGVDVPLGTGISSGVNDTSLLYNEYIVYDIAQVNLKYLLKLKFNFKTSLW

IC50	Structure (SMILES)
≤ 10 nM	CCN1C(=O)Nc2c(F)c(CN3CCN(c4ccc(C(=O)N[C@@H]5CCOC5)nc4C)CC3)cc3ncnc1c23 [Compound I-67, (R)-5-(4-((3-ethyl-9-fluoro-2-oxo-2,3-dihydro-1H-pyrimido[4,5,6-de]quinazolin-8-yl)methyl)piperazin-1-yl)-6-methyl-N-(tetrahydrofuran-3-yl)picolinamide]
≤ 10 nM	CCNC(=O)c1ccc(N2CCN(Cc3cc(Cl)c4c(=O)n(CC)c(=O)[nH]c4c3)CC2)c(C)n1 [Compound I-48, 5-(4-((5-chloro-3-ethyl-2,4-dioxo-1,2,3,4-tetrahydroquinazolin-7-yl)methyl)piperazin-1-yl)-N-ethyl-6-methylpicolinamide]
≤ 10 nM	CCN1C(=O)Nc2c(F)c(CN3CCN(c4ccc(C(=O)NOC)nc4C)CC3)cc3ncnc1c23 [Compound I-57, 5-(4-((3-Ethyl-9-fluoro-2-oxo-2,3-dihydro-1H-pyrimido[4,5,6-de]quinazolin-8-yl)methyl)piperazin-1-yl)-N-methoxy-6-methylpicolinamide]
≤ 10 nM	CCN1C(=O)Nc2c(F)c(CN3CCN(c4ccc(C(=O)N[C@H]5CCCOC5)nc4C)CC3)cc3ncnc1c23 [Compound I-63, (S)-5-(4-((3-ethyl-9-fluoro-2-oxo-2,3-dihydro-1H-pyrimido[4,5,6-de]quinazolin-8-yl)methyl)piperazin-1-yl)-6-methyl-N-(tetrahydro-2H-pyran-3-yl)picolinamide]
≤ 10 nM	CNC(=O)c1ccc(N2CCN(Cc3cc(C4CC4)c4c(=O)n(C)c(=O)[nH]c4c3F)CC2)c(C)n1 [Compound I-49, 5-(4-((5-Cyclopropyl-8-fluoro-3-methyl-2,4-dioxo-1,2,3,4-tetrahydroquinazolin-7-yl)methyl)piperazin-1-yl)-N,6-dimethylpicolinamide]
≤ 10 nM	CCn1c(=O)[nH]c2c(F)c(CN3CCN(c4ccc(C(=O)NC)nc4C)CC3)cc(Cl)c2c1=O [Compound I-39, 5-(4-((5-chloro-3-ethyl-8-fluoro-2,4-dioxo-1,2,3,4-tetrahydroquinazolin-7-yl)methyl)piperazin-1-yl)-N,6-dimethylpicolinamide]
≤ 10 nM	CCN1C(=O)Nc2c(F)c(CN3CCN(c4ccc(C(=O)NOCC5CC5)nc4C)CC3)cc3ncnc1c23 [Compound I-58, N-(cyclopropylmethoxy)-5-(4-((3-ethyl-9-fluoro-2-oxo-2,3-dihydro-1H-pyrimido[4,5,6-de]quinazolin-8-yl)methyl)piperazin-1-yl)-6-methylpicolinamide]
≤ 10 nM	CCN1C(=O)Nc2c(F)c(CN3CCN(c4ccc(C(=O)NC5(CO)CC5)nc4C)CC3)cc3ncnc1c23 [Compound I-59, 5-(4-((3-ethyl-9-fluoro-2-oxo-2,3-dihydro-1H-pyrimido[4,5,6-de]quinazolin-8-yl)methyl)piperazin-1-yl)-N-(1-(hydroxymethyl)cyclopropyl)-6-methylpicolinamide]
≤ 10 nM	CCn1c(=O)[nH]c2c(F)c(CN3CCN(c4ccc(C(=O)NC)nc4C)CC3)cc(CC#N)c2c1=O [Compound I-42, 5-(4-((5-(Cyanomethyl)-3-ethyl-8-fluoro-2,4-dioxo-1,2,3,4-tetrahydroquinazolin-7-yl)methyl)piperazin-1-yl)-N,6-dimethylpicolinamide]
≤ 10 nM	CCN1C(=O)Nc2c(F)c(CN3CCN(c4ccc(C(=O)NC5CC5)nc4C)CC3)cc3ncnc1c23 [Compound I-55, N-cyclopropyl-5-(4-((3-ethyl-9-fluoro-2-oxo-2,3-dihydro-1H-pyrimido[4,5,6-de]quinazolin-8-yl)methyl)piperazin-1-yl)-6-methylpicolinamide]
100 to 500 nM	CCn1c(=O)[nH]c2cc(CN3CCN(c4ccc(C(=O)NC)nc4)CC3)cnc2c1=O [Compound I-9, 5-(4-((3-Ethyl-2,4-dioxo-1,2,3,4-tetrahydropyrido[3,2-d]pyrimidin-7-yl)methyl)piperazin-1-yl)-N-methylpicolinamide]
≤ 10 nM	CCN1C(=O)Nc2c(F)c(CN3CCN(c4ccc(C(=O)NC5(C#N)CC5)nc4C)CC3)cc3ncnc1c23 [Compound I-62, N-(1-cyanocyclopropyl)-5-(4-((3-ethyl-9-fluoro-2-oxo-2,3-dihydro-1H-pyrimido[4,5,6-de]quinazolin-8-yl)methyl)piperazin-1-yl)-6-methylpicolinamide]
≤ 10 nM	CCN1C(=O)Nc2c(F)c(CN3CCN(c4ccc(C(=O)N[C@H]5CCN(C)C5)nc4C)CC3)cc3ncnc1c23 [Compound I-78, (S)-5-(4-((3-ethyl-9-fluoro-2-oxo-2,3-dihydro-1H-pyrimido[4,5,6-de]quinazolin-8-yl)methyl)piperazin-1-yl)-6-methyl-N-(1-methylpyrrolidin-3-yl)picolinamide]
≤ 10 nM	CNC(=O)c1ccc(N2CCN(Cc3ncc4c5c(c(=O)[nH]c4c3F)CCC5)CC2)c(F)n1 [Compound I-27, 6-Fluoro-5-(4-((4-fluoro-6-oxo-6,7,8,9-tetrahydro-5H-cyclopenta[c][1,6]naphthyridin-3-yl)methyl)piperazin-1-yl)-N-methylpicolinamide]
≤ 10 nM	CCN1C(=O)Nc2c(F)c(CN3CCN(c4ccc(C(=O)NC5CN(C)C5)nc4C)CC3)cc3ncnc1c23 [Compound I-71, 5-(4-((3-ethyl-9-fluoro-2-oxo-2,3-dihydro-1H-pyrimido[4,5,6-de]quinazolin-8-yl)methyl)piperazin-1-yl)-6-methyl-N-(1-methylazetidin-3-yl)picolinamide]
≤ 10 nM	CCN1C(=O)Nc2c(F)c(CN3CCN(c4ccc(C(=O)N[C@H]5C[C@@H](C#N)C5)nc4C)CC3)cc3ncnc1c23 [Compound I-65, N-((1s,3s)-3-cyanocyclobutyl)-5-(4-((3-ethyl-9-fluoro-2-oxo-2,3-dihydro-1H-pyrimido[4,5,6-de]quinazolin-8-yl)methyl)piperazin-1-yl)-6-methylpicolinamide]
≤ 10 nM	CCc1cc2sc(CN3CCN(c4ccc(C(=O)NC)nc4)CC3)cc2[nH]c1=O [Compound I-13, 5-(4-((6-Ethyl-5-oxo-4,5-dihydrothieno[3,2-b]pyridin-2-yl)methyl)piperazin-1-yl)-N-methylpicolinamide]
≤ 10 nM	CCN1C(=O)Nc2c(F)c(CN3CCN(c4ccc(C(=O)NC5CCC5)nc4C)CC3)cc3ncnc1c23 [Compound I-96, N-cyclobutyl-5-(4-((3-ethyl-9-fluoro-2-oxo-2,3-dihydro-1H-pyrimido[4,5,6-de]quinazolin-8-yl)methyl)piperazin-1-yl)-6-methylpicolinamide]
≤ 10 nM	CCn1c(=O)[nH]c2c(F)c(CN3CCN(c4ccc(C(=O)NC)nc4C)CC3)cc(CO)c2c1=O [Compound I-41, 5-(4-((3-Ethyl-8-fluoro-5-(hydroxymethyl)-2,4-dioxo-1,2,3,4-tetrahydroquinazolin-7-yl)methyl)piperazin-1-yl)-N,6-dimethylpicolinamide]
≤ 10 nM	CCn1c(=O)[nH]c2cc(CN3CCN(c4ccc(C(=O)NC)nc4F)CC3)ccc2c1=O [Compound I-29, 5-(4-((3-Ethyl-2,4-dioxo-1,2,3,4-tetrahydroquinazolin-7-yl)methyl)piperazin-1-yl)-6-fluoro-N-methylpicolinamide]
≤ 10 nM	CNC(=O)c1ccc(N2CCN(Cc3ccc4c(c3)[nH]c(=O)c3c4ccn3C)CC2)cn1 [Compound I-7, N-methyl-5-(4-((3-methyl-4-oxo-4,5-dihydro-3H-pyrrolo[2,3-c]quinolin-7-yl)methyl)piperazin-1-yl)picolinamide]
≤ 10 nM	CCN1C(=O)Nc2c(F)c(CN3CCN(c4ccc(C(=O)NC5CC5)c(F)c4F)CC3)cc3ncnc1c23 [Compound I-90, N-cyclopropyl-4-(4-((3-ethyl-9-fluoro-2-oxo-2,3-dihydro-1H-pyrimido[4,5,6-de]quinazolin-8-yl)methyl)piperazin-1-yl)-2,3-difluorobenzamide]
≤ 10 nM	CCn1c(=O)[nH]c2cc(CN3CCN(c4ccc(C(=O)NC)nc4F)CC3)cc(F)c2c1=O [Compound I-33, 5-(4-((3-Ethyl-5-fluoro-2,4-dioxo-1,2,3,4-tetrahydroquinazolin-7-yl)methyl)piperazin-1-yl)-6-fluoro-N-methylpicolinamide]
≤ 10 nM	[2H]C([2H])([2H])NC(=O)c1ccc(N2CCN(Cc3cc(F)c4c(=O)n(CC)c(=O)[nH]c4c3)CC2)c(C([2H])([2H])[2H])n1 [Compound I-36, 5-(4-((3-Ethyl-5-fluoro-2,4-dioxo-1,2,3,4-tetrahydroquinazolin-7-yl)methyl)piperazin-1-yl)-N,6-bis(methyl-d3)picolinamide]
10 to 100 nM	CCN1C(=O)Nc2c(F)c(CN3CCN(c4ccc(C(=O)NC5CC5)nc4C)CC3)cc3c(=O)n(C)nc1c23 [Compound I-80, N-cyclopropyl-5-(4-((9-ethyl-6-fluoro-2-methyl-3,8-dioxo-2,7,8,9-tetrahydro-3H-pyridazino[3,4,5-de]quinazolin-5-yl)methyl)piperazin-1-yl)-6-methylpicolinamide]
